{"source": "patent US20260363239A1", "about": "“COMPOSITIONS TO CONTROL LEVEL OF UNDESIRABLE MATERIALS” (Solugen, Inc., priority 2022, published 2026)", "key": {"E. Coli": {"system": "E. Coli", "experiment": "Minimum inhibitory concentration (MIC) against E. coli", "format": "cell-based", "settings": "Escherichia coli", "description": "(§1) A minimum inhibitory concentration (MIC) of a MUM was determined and compared to that of the biocide glutaraldehyde. Specifically, the indicated compound or blend of compounds was used to treat a wildtype E. coli strain and the effect of this treatment on bacterial count used to determine the MIC.\n(§2) However, the mixture of the glyoxal and glycolaldehyde (1,4 dioxane 2,5 diol) provided competitive performance to glutaraldehyde."}, "[1]": {"system": "general wild strain bacteria", "experiment": "Minimum inhibitory concentration (MIC) against general wild strain bacteria", "format": "cell-based", "description": "as §1, §2"}}, "data": [{"smiles": "OC1COC(O)CO1", "note": "(stereo not drawn) [39% 1,4 dioxane 2,5 diol, 1,4 dioxane 2,5 diol]", "values": [{"measurement": "MIC", "setting": "E. Coli", "value": 1000, "unit": "µg/mL"}, {"measurement": "MIC", "setting": "[1]", "value": "> 1000", "unit": "µg/mL"}]}, {"smiles": "O=CCCCC=O", "note": "[40% glutaraldehyde, glutaraldehyde]", "values": [{"measurement": "MIC", "setting": "E. Coli", "value": 1000, "unit": "µg/mL"}, {"measurement": "MIC", "setting": "[1]", "value": 1000, "unit": "µg/mL"}]}, {"smiles": "O=CC=O", "note": "[39% glyoxal, glyoxal]", "values": [{"measurement": "MIC", "setting": "E. Coli", "value": 1000, "unit": "µg/mL"}, {"measurement": "MIC", "setting": "[1]", "value": "> 1000", "unit": "µg/mL"}]}]}
